Results from ChEMBL document CHEMBL1201862, “PubChem BioAssay data set” (2004).
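Exposure lasted 48 hours, with cells grown in 96-well plates and compounds tested at five concentrations. GI50: concentration for 50% inhibition of growth.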 Active and inactive are the calls of the source. Rule as the data show it: active = GI50 up to about 1.1 µM and inactive = higher.

Legend:
Assay in all cases: NCI-60 cell line screen, 48 h
[1] = tested on: SF-539
[2] = tested on: Malme-3M
[3] = tested on: HT-29
[4] = tested on: OVCAR-5
[5] = tested on: SF-268
[6] = tested on: HCT-15
[7] = tested on: SW-620
[8] = tested on: HCT-116
[9] = tested on: OVCAR-4
[10] = tested on: SK-MEL-5
[11] = tested on: UO-31
[12] = tested on: MOLT-4
[13] = tested on: NCI-H226
[14] = tested on: KM12
[15] = tested on: OVCAR-8
[16] = tested on: NCI-H522
[17] = tested on: COLO 205
[18] = tested on: TK-10
[19] = tested on: EKVX
[20] = tested on: ACHN

| Structure (SMILES) | GI50 [1] | GI50 [2] | GI50 [3] | GI50 [4] | GI50 [5] | GI50 [6] [µM] | GI50 [7] | GI50 [8] | GI50 [9] | GI50 [10] | GI50 [11] | GI50 [12] | GI50 [13] | GI50 [14] | GI50 [15] | GI50 [16] | GI50 [17] | GI50 [18] | GI50 [19] | GI50 [20] |
| --- | --- | --- | --- | --- | --- | --- | --- | --- | --- | --- | --- | --- | --- | --- | --- | --- | --- | --- | --- | --- |
| O=S(=O)(CCBr)CCBr | 6.22 µM (inactive) | 3.17 µM (inactive) | 5.94 µM (inactive) | 13.7 µM (inactive) | 3.99 µM (inactive) | 2.64 | 2.23 µM (inactive) | 3.37 µM (inactive) | 9.57 µM (inactive) | 7.35 µM (inactive) | 30.8 µM (inactive) | 2.58 µM (inactive) | 19.2 µM (inactive) | 13.9 µM (inactive) | 2.32 µM (inactive) | 1.48 µM (inactive) | 3.21 µM (inactive) | – | – | – |
| O=C(O)CSc1nnc(/C=C/c2ccccc2)[nH]1 | > 100 µM (inactive) | > 100 µM (inactive) | > 100 µM (inactive) | > 100 µM (inactive) | > 100 µM (inactive) | > 100 | > 57.5 µM (inactive) | > 100 µM (inactive) | > 100 µM (inactive) | > 100 µM (inactive) | > 100 µM (inactive) | > 100 µM (inactive) | > 100 µM (inactive) | > 100 µM (inactive) | > 100 µM (inactive) | > 100 µM (inactive) | > 100 µM (inactive) | > 100 µM (inactive) | > 100 µM (inactive) | > 100 µM (inactive) |
| CNC(=S)N/N=C(/C)CCC/C(C)=N/NC(=S)NC | > 100 µM (inactive) | > 90.4 µM (inactive) | 0.499 µM (active) | 1 µM (active) | > 35.2 µM (inactive) | 11 | – | – | 1.69 µM (inactive) | 16.4 µM (inactive) | > 54.8 µM (inactive) | 0.0414 µM (active) | > 61.7 µM (inactive) | > 100 µM (inactive) | 57.4 µM (inactive) | 0.728 µM (active) | 0.308 µM (active) | > 100 µM (inactive) | 0.778 µM (active) | > 80.7 µM (inactive) |
| CSc1nc(NC2OC(CO)C(O)C(O)C2O)c(N)c(=O)n1C (stereo not drawn) | > 100 µM (inactive) | > 100 µM (inactive) | > 100 µM (inactive) | > 100 µM (inactive) | > 100 µM (inactive) | > 100 | > 100 µM (inactive) | > 100 µM (inactive) | > 100 µM (inactive) | > 100 µM (inactive) | > 100 µM (inactive) | > 100 µM (inactive) | > 100 µM (inactive) | > 100 µM (inactive) | > 100 µM (inactive) | > 100 µM (inactive) | > 100 µM (inactive) | – | > 100 µM (inactive) | – |
| CN(C)CCCNC(=O)c1c(-c2cccnc2)cnc2ccccc12 | > 100 µM (inactive) | > 100 µM (inactive) | > 100 µM (inactive) | > 100 µM (inactive) | > 100 µM (inactive) | > 100 | > 100 µM (inactive) | > 100 µM (inactive) | > 100 µM (inactive) | 61.9 µM (inactive) | > 100 µM (inactive) | > 100 µM (inactive) | > 100 µM (inactive) | > 10 µM (inactive) | > 100 µM (inactive) | > 100 µM (inactive) | > 100 µM (inactive) | > 100 µM (inactive) | > 100 µM (inactive) | > 100 µM (inactive) |
| C[n+]1ccc(Nc2ccc(NC(=O)c3ccc(Nc4cc[n+](C)c5ccc([N+](=O)[O-])cc45)cc3[N+](=O)[O-])cc2)cc1 | 22.8 µM (inactive) | 19.7 µM (inactive) | – | – | 40.6 µM (inactive) | 44.8 | > 100 µM (inactive) | 31.1 µM (inactive) | 51.2 µM (inactive) | 24.1 µM (inactive) | 45.3 µM (inactive) | 32.3 µM (inactive) | > 56.1 µM (inactive) | 65.9 µM (inactive) | 31.7 µM (inactive) | 16.6 µM (inactive) | 14 µM (inactive) | – | 45.7 µM (inactive) | – |
| NCCCn1c(Cl)nc2ccccc21 | – | > 100 µM (inactive) | > 100 µM (inactive) | > 100 µM (inactive) | > 100 µM (inactive) | > 100 | > 100 µM (inactive) | > 100 µM (inactive) | > 100 µM (inactive) | > 100 µM (inactive) | > 100 µM (inactive) | > 100 µM (inactive) | > 100 µM (inactive) | > 100 µM (inactive) | > 100 µM (inactive) | > 100 µM (inactive) | > 100 µM (inactive) | – | > 100 µM (inactive) | > 100 µM (inactive) |
| CCCCN(CCCC)C(=O)C(=O)C(C(=O)C(=O)OC)c1nc2ccccc2o1 (stereo not drawn) | > 100 µM (inactive) | > 100 µM (inactive) | > 100 µM (inactive) | > 100 µM (inactive) | > 100 µM (inactive) | 44.5 | 87.5 µM (inactive) | 67.9 µM (inactive) | > 100 µM (inactive) | 62.7 µM (inactive) | > 100 µM (inactive) | 29 µM (inactive) | > 100 µM (inactive) | > 100 µM (inactive) | > 100 µM (inactive) | > 100 µM (inactive) | > 100 µM (inactive) | > 100 µM (inactive) | – | > 100 µM (inactive) |
| CC(=O)N1C(=O)/C(=C\C(=O)c2ccc(Cl)cc2)c2ccccc21 | 12.2 µM (inactive) | 16.3 µM (inactive) | 4.32 µM (inactive) | 20 µM (inactive) | 18 µM (inactive) | 6.73 | 4.24 µM (inactive) | 9.29 µM (inactive) | 16.7 µM (inactive) | 19.2 µM (inactive) | 15.4 µM (inactive) | 3.43 µM (inactive) | 19.9 µM (inactive) | 16.9 µM (inactive) | 14.1 µM (inactive) | 10.9 µM (inactive) | 9.44 µM (inactive) | 15.6 µM (inactive) | 17.6 µM (inactive) | 9.31 µM (inactive) |
| N#CCCN(CCC#N)c1ccc(/C=C2\N=C(c3cc([N+](=O)[O-])ccc3Cl)N(S(=O)(=O)c3ccccc3)C2=O)cc1 | > 100 µM (inactive) | > 100 µM (inactive) | – | > 100 µM (inactive) | > 100 µM (inactive) | > 100 | > 100 µM (inactive) | > 100 µM (inactive) | > 100 µM (inactive) | > 100 µM (inactive) | > 100 µM (inactive) | > 100 µM (inactive) | > 100 µM (inactive) | > 100 µM (inactive) | > 100 µM (inactive) | > 100 µM (inactive) | > 100 µM (inactive) | > 100 µM (inactive) | > 100 µM (inactive) | > 100 µM (inactive) |
| Cc1cc(C)c2c(c1)CC1(Cc3c(C)ccc(C)c3C1=O)C2=O (stereo not drawn) | > 100 µM (inactive) | > 100 µM (inactive) | – | > 100 µM (inactive) | > 100 µM (inactive) | > 100 | > 100 µM (inactive) | – | > 100 µM (inactive) | > 100 µM (inactive) | – | > 100 µM (inactive) | > 100 µM (inactive) | > 100 µM (inactive) | > 100 µM (inactive) | > 100 µM (inactive) | > 100 µM (inactive) | > 100 µM (inactive) | > 100 µM (inactive) | > 100 µM (inactive) |
| COc1cc(O)c(Cc2ccccc2O)c(O)c1C(=O)CCc1ccccc1 [UVARETIN] | 5.41 µM (inactive) | 4.89 µM (inactive) | 11.9 µM (inactive) | 4.6 µM (inactive) | 7.01 µM (inactive) | 5.71 | 7.23 µM (inactive) | 4.31 µM (inactive) | 6.55 µM (inactive) | 3.69 µM (inactive) | 6.21 µM (inactive) | 3.85 µM (inactive) | 6.62 µM (inactive) | 6.81 µM (inactive) | 6.41 µM (inactive) | 2.3 µM (inactive) | 5.92 µM (inactive) | – | 6.19 µM (inactive) | – |
| CC(=O)C(=O)NC1/C=C(C)\C=C/C(O)C/C=C(C)\C=C/C(O)CC2OC(=O)C1(C)C(=O)C2C (stereo not drawn) | > 100 µM (inactive) | > 100 µM (inactive) | > 100 µM (inactive) | > 100 µM (inactive) | > 100 µM (inactive) | > 100 | > 100 µM (inactive) | > 100 µM (inactive) | > 100 µM (inactive) | > 100 µM (inactive) | > 100 µM (inactive) | > 31.2 µM (inactive) | > 100 µM (inactive) | > 100 µM (inactive) | > 100 µM (inactive) | > 100 µM (inactive) | > 62.2 µM (inactive) | – | > 100 µM (inactive) | – |
